Experimental data reported in ChEMBL document CHEMBL1649134, “Occurrence of efflux mechanism and cephalosporinase variant in a population of Enterobacter aerogenes and Klebsiella pneumoniae isolates producing extended-spectrum beta-lactamases” (2009).
Values after ≈ are worked out from the molar mass of the structure shown. Active and inactive are the calls of the source. The rule behind the calls is not given here. Peptide text beside a SMILES is read from it. * marks the point of attachment. βNA = c1ccc2cc(N*)ccc2c1

What was measured:
Klebsiella aerogenes [1] = assay: Antimicrobial activity against multidrug resistant Enterobacter aerogenes isolate 1 by broth dilution method; format: functional
Klebsiella aerogenes [2] = assay: Antimicrobial activity against multidrug resistant Enterobacter aerogenes isolate 2 by broth dilution method; format: functional
Klebsiella aerogenes [3] = assay: Antimicrobial activity against multidrug resistant Enterobacter aerogenes isolate 3 by broth dilution method; format: functional
Klebsiella aerogenes [4] = assay: Antimicrobial activity against multidrug resistant Enterobacter aerogenes isolate 4 by broth dilution method; format: functional
Klebsiella aerogenes [5] = assay: Antimicrobial activity against multidrug resistant Enterobacter aerogenes isolate 5 by broth dilution method; format: functional
Klebsiella aerogenes [6] = assay: Antimicrobial activity against multidrug resistant Enterobacter aerogenes isolate 6 by broth dilution method; format: functional
Klebsiella aerogenes [7] = assay: Antimicrobial activity against multidrug resistant Enterobacter aerogenes isolate 7 by broth dilution method; format: functional
Klebsiella aerogenes [8] = assay: Antimicrobial activity against multidrug resistant Enterobacter aerogenes isolate 8 by broth dilution method; format: functional
Klebsiella aerogenes [9] = assay: Antimicrobial activity against multidrug resistant Enterobacter aerogenes isolate 9 by broth dilution method; format: functional
Klebsiella aerogenes [10] = assay: Antimicrobial activity against multidrug resistant Enterobacter aerogenes isolate 10 by broth dilution method; format: functional
Klebsiella aerogenes [11] = assay: Antimicrobial activity against multidrug resistant Enterobacter aerogenes isolate 11 by broth dilution method; format: functional
Klebsiella aerogenes [12] = assay: Antimicrobial activity against multidrug resistant Enterobacter aerogenes isolate 12 by broth dilution method; format: functional
Klebsiella aerogenes [13] = assay: Antimicrobial activity against multidrug resistant Enterobacter aerogenes isolate 13 by broth dilution method; format: functional
Klebsiella aerogenes [14] = assay: Antimicrobial activity against multidrug resistant Enterobacter aerogenes isolate 14 by broth dilution method; format: functional
Klebsiella aerogenes [15] = assay: Antimicrobial activity against multidrug resistant Enterobacter aerogenes isolate 15 by broth dilution method; format: functional
Klebsiella aerogenes [16] = assay: Antimicrobial activity against multidrug resistant Enterobacter aerogenes isolate 16 by broth dilution method; format: functional
Klebsiella aerogenes [17] = assay: Antimicrobial activity against multidrug resistant Enterobacter aerogenes isolate 17 by broth dilution method; format: functional
Klebsiella aerogenes [18] = assay: Antimicrobial activity against multidrug resistant Enterobacter aerogenes isolate 18 by broth dilution method; format: functional
Klebsiella aerogenes [19] = assay: Antimicrobial activity against multidrug resistant Enterobacter aerogenes isolate 19 by broth dilution method; format: functional
Klebsiella aerogenes [20] = assay: Antimicrobial activity against multidrug resistant Enterobacter aerogenes isolate 20 by broth dilution method; format: functional
Klebsiella aerogenes [21] = assay: Antimicrobial activity against multidrug resistant Enterobacter aerogenes isolate 21 by broth dilution method; format: functional
Klebsiella aerogenes [22] = assay: Antimicrobial activity against multidrug resistant Enterobacter aerogenes isolate 22 by broth dilution method; format: functional
Klebsiella aerogenes [23] = assay: Antimicrobial activity against multidrug resistant Enterobacter aerogenes isolate 23 by broth dilution method; format: functional
Klebsiella aerogenes [24] = assay: Antimicrobial activity against multidrug resistant Enterobacter aerogenes isolate 24 by broth dilution method; format: functional
Klebsiella aerogenes [25] = assay: Antimicrobial activity against multidrug resistant Enterobacter aerogenes isolate 25 by broth dilution method; format: functional
Klebsiella aerogenes [26] = assay: Antimicrobial activity against multidrug resistant Enterobacter aerogenes isolate 26 by broth dilution method; format: functional
Klebsiella aerogenes [27] = assay: Antimicrobial activity against multidrug resistant Enterobacter aerogenes isolate 27 by broth dilution method; format: functional
Klebsiella pneumoniae [28] = assay: Antimicrobial activity against multidrug resistant Klebsiella pneumoniae ATCC 11296 by broth dilution method; format: functional
Klebsiella pneumoniae [29] = assay: Antimicrobial activity against multidrug resistant Klebsiella pneumoniae isolate 1 by broth dilution method; format: functional
Klebsiella pneumoniae [30] = assay: Antimicrobial activity against multidrug resistant Klebsiella pneumoniae isolate 2 by broth dilution method; format: functional
Klebsiella pneumoniae [31] = assay: Antimicrobial activity against multidrug resistant Klebsiella pneumoniae isolate 3 by broth dilution method; format: functional
Klebsiella pneumoniae [32] = assay: Antimicrobial activity against multidrug resistant Klebsiella pneumoniae isolate 4 by broth dilution method; format: functional
Klebsiella pneumoniae [33] = assay: Antimicrobial activity against multidrug resistant Klebsiella pneumoniae isolate 5 by broth dilution method; format: functional
Klebsiella pneumoniae [34] = assay: Antimicrobial activity against multidrug resistant Klebsiella pneumoniae isolate 6 by broth dilution method; format: functional
Klebsiella pneumoniae [35] = assay: Antimicrobial activity against multidrug resistant Klebsiella pneumoniae isolate 7 by broth dilution method; format: functional
Klebsiella pneumoniae [36] = assay: Antimicrobial activity against multidrug resistant Klebsiella pneumoniae isolate 8 by broth dilution method; format: functional
Klebsiella pneumoniae [37] = assay: Antimicrobial activity against multidrug resistant Klebsiella pneumoniae isolate 9 by broth dilution method; format: functional
Klebsiella pneumoniae [38] = assay: Antimicrobial activity against multidrug resistant Klebsiella pneumoniae isolate 10 by broth dilution method; format: functional
Klebsiella pneumoniae [39] = assay: Antimicrobial activity against multidrug resistant Klebsiella pneumoniae isolate 11 by broth dilution method; format: functional
Klebsiella pneumoniae [40] = assay: Antimicrobial activity against multidrug resistant Klebsiella pneumoniae isolate 12 by broth dilution method; format: functional
Klebsiella pneumoniae [41] = assay: Antimicrobial activity against multidrug resistant Klebsiella pneumoniae isolate 13 by broth dilution method; format: functional
Klebsiella pneumoniae [42] = assay: Antimicrobial activity against multidrug resistant Klebsiella pneumoniae isolate 14 by broth dilution method; format: functional
Klebsiella pneumoniae [43] = assay: Antimicrobial activity against multidrug resistant Klebsiella pneumoniae isolate 15 by broth dilution method; format: functional
Klebsiella pneumoniae [44] = assay: Antimicrobial activity against multidrug resistant Klebsiella pneumoniae isolate 16 by broth dilution method; format: functional
Klebsiella aerogenes [45] = assay: Antimicrobial activity against multidrug resistant Enterobacter aerogenes ATCC 15038 by broth dilution method; format: functional
Klebsiella aerogenes [46] = assay: Inhibition of multidrug resistance efflux pump in Enterobacter aerogenes isolate 6 assessed as increase in intracellular [14C]chloramphenicol accumulation relative to untreated control; format: cell-based
Klebsiella aerogenes [47] = assay: Inhibition of multidrug resistance efflux pump in Enterobacter aerogenes isolate 13 assessed as increase in intracellular [14C]chloramphenicol accumulation relative to untreated control; format: cell-based
Klebsiella aerogenes [48] = assay: Inhibition of multidrug resistance efflux pump in Enterobacter aerogenes isolate 17 assessed as increase in intracellular [14C]chloramphenicol accumulation relative to untreated control; format: cell-based
Klebsiella pneumoniae [49] = assay: Inhibition of multidrug resistance efflux pump in Klebsiella pneumoniae isolate 13 assessed as increase in intracellular [14C]chloramphenicol accumulation relative to untreated control
Klebsiella pneumoniae [50] = assay: Inhibition of multidrug resistance efflux pump in Klebsiella pneumoniae isolate 14 assessed as increase in intracellular [14C]chloramphenicol accumulation relative to untreated control

## CO[C@@]1(NC(=O)Cc2cccs2)C(=O)N2C(C(=O)O)=C(COC(N)=O)CS[C@@H]21 [CEFOXITIN]
Klebsiella aerogenes [1]
  MIC: > 1020 µg/mL
Klebsiella aerogenes [2]
  MIC: > 1020 µg/mL
Klebsiella aerogenes [3]
  MIC: > 1020 µg/mL
Klebsiella aerogenes [4]
  MIC: > 1020 µg/mL
Klebsiella aerogenes [5]
  MIC: > 1020 µg/mL
Klebsiella aerogenes [6]
  MIC: > 1020 µg/mL
Klebsiella aerogenes [7]
  MIC: > 1020 µg/mL
Klebsiella aerogenes [8]
  MIC: 1020 µg/mL (≈ 2400 µM)
Klebsiella aerogenes [9]
  MIC: > 1020 µg/mL
Klebsiella aerogenes [10]
  MIC: > 1020 µg/mL
Klebsiella aerogenes [11]
  MIC: 512 µg/mL (≈ 1200 µM)
Klebsiella aerogenes [12]
  MIC: > 1020 µg/mL
Klebsiella aerogenes [13]
  MIC: > 1020 µg/mL
Klebsiella aerogenes [14]
  MIC: > 1020 µg/mL
Klebsiella aerogenes [15]
  MIC: > 1020 µg/mL
Klebsiella aerogenes [16]
  MIC: > 1020 µg/mL
Klebsiella aerogenes [17]
  MIC: > 1020 µg/mL
Klebsiella aerogenes [18]
  MIC: > 1020 µg/mL
Klebsiella aerogenes [19]
  MIC: > 1020 µg/mL
Klebsiella aerogenes [20]
  MIC: > 1020 µg/mL
Klebsiella aerogenes [21]
  MIC: > 1020 µg/mL
Klebsiella aerogenes [22]
  MIC: > 1020 µg/mL
Klebsiella aerogenes [23]
  MIC: 256 µg/mL (≈ 599 µM)
Klebsiella aerogenes [24]
  MIC: > 1020 µg/mL
Klebsiella aerogenes [25]
  MIC: > 1020 µg/mL
Klebsiella aerogenes [26]
  MIC: 1020 µg/mL (≈ 2400 µM)
Klebsiella aerogenes [27]
  MIC: > 1020 µg/mL
Klebsiella pneumoniae [28]
  MIC: 8 µg/mL (≈ 18.7 µM)
Klebsiella pneumoniae [29]
  MIC: 16 µg/mL (≈ 37.4 µM)
Klebsiella pneumoniae [30]
  MIC: 16 µg/mL (≈ 37.4 µM)
Klebsiella pneumoniae [31]
  MIC: 32 µg/mL (≈ 74.9 µM)
Klebsiella pneumoniae [32]
  MIC: 32 µg/mL (≈ 74.9 µM)
Klebsiella pneumoniae [33]
  MIC: 16 µg/mL (≈ 37.4 µM)
Klebsiella pneumoniae [34]
  MIC: 16 µg/mL (≈ 37.4 µM)
Klebsiella pneumoniae [35]
  MIC: 16 µg/mL (≈ 37.4 µM)
Klebsiella pneumoniae [36]
  MIC: 8 µg/mL (≈ 18.7 µM)
Klebsiella pneumoniae [37]
  MIC: 16 µg/mL (≈ 37.4 µM)
Klebsiella pneumoniae [38]
  MIC: 32 µg/mL (≈ 74.9 µM)
Klebsiella pneumoniae [39]
  MIC: 32 µg/mL (≈ 74.9 µM)
Klebsiella pneumoniae [40]
  MIC: 64 µg/mL (≈ 150 µM)
Klebsiella pneumoniae [41]
  MIC: 32 µg/mL (≈ 74.9 µM)
Klebsiella pneumoniae [42]
  MIC: 64 µg/mL (≈ 150 µM)
Klebsiella pneumoniae [43]
  MIC: 64 µg/mL (≈ 150 µM)
Klebsiella pneumoniae [44]
  MIC: 32 µg/mL (≈ 74.9 µM)
Klebsiella aerogenes [45]
  MIC: 128 µg/mL (≈ 299 µM)

## N=C(N)NCCC[C@H](NC(=O)[C@@H](N)Cc1ccccc1)C(=O)Nc1ccc2ccccc2c1 (H-Phe-Arg-βNA)
Klebsiella aerogenes [46]
  inhibition: Active
Klebsiella aerogenes [47]
  inhibition: Active
Klebsiella aerogenes [48]
  inhibition: Active
Klebsiella pneumoniae [49]
  inhibition: Active
Klebsiella pneumoniae [50]
  inhibition: Active
